Experimental data reported in patent US10875829B1, “Azetidine derivatives useful as modulators of cortical catecholaminergic neurotransmission” (Integrative Research Laboratories Sweden AB, priority 2016, dated 2020).
Where a name gives a salt, the structure may show the parent alone. Marks after values point to notes of the source that are not given here.

Columns and labels:
Arc mRNA = experiment: m-RNA analysis: tissue levels of Arc in brain regions; type: in vivo, rats; conditions: 33 μmol/kg s.c., 65 min before sacrifice, control saline, n=5
Experimental: Sesack et al. (Anatom Substr Glut-Dopamine Inter. Annals of NY AcadSci, 2003, 1003; 36-52) discloses that the dopaminergic systems of the brain interact strongly with central glutamate neurotransmission. To investigate potential effects of compounds as disclosed herein on cortical and striatal NMDA type glutamate receptor related synaptic signaling, Arc mRNA induction was assessed upon acute administration. Arc (Arc/Arg3.1-activity regulated cytoskeleton-associated protein/activity-regulated gene 3.1; (Link W et al., Proc Natl Acad Sci, USA, 1995, 92; 5734-8 and Lyford G L et al., Neuron, 1995, 14; 433-45), is an immediate early gene (IEG), induced by synaptic activity, whose expression and localization at synaptic sites is triggered specifically by NMDA receptor activation and strongly related to neural plasticity (Steward and Worley, Neuron, 2001, 30; 227-40, Kawashima et al., PNAS, 2009, 106(1); 316-21 and Bramham et al., Exp Brain Res, 2010, 200; 125-40).
Animals were killed 60 min after the injection of the drugs by decapitation and the brains were dissected into […] different areas: Limbic system (containing nucleus accumbens, most parts of the olfactory tubercle, ventral pallidum), striatum, frontal cortex, hippocampus and the remaining cortex.
Total RNA was prepared by the guanidin isothiocyanate method (Chomczynski P and Sacchi N, Anal Biochem, 1987, 162(1); 156-9). RNA pellets were solved in RNAse-free water and stored at −80° C. The sample concentration was determined spectrophotometrically by a NanoDrop ND1000 (Saveen Werner). A quality indicator number and an integrity number of r-RNA were measured with an Experion (Bio-rad).
A two-step reversed transcription was performed by using a SuperScript III kit (Invitrogen). 1 μg of total RNA was reverse transcribed with 5 μl 2XRT Reaction Mix, 1 μl RT Enzyme Mix, in a total volume adjusted to 10 μl with DEPC-treated water. 1 U of E. coli RNase H was added. c-DNA was diluted 40 times and stored at −20° C.
Three sequences (one gene of interest and two reference genes) were amplified together in a triplex PCR-reaction. For real-time PCR measurements: 5 μl of c-DNA reaction was amplified in a 20 μl reaction mixture containing 10 μl PerfeCta Multiplex qPCR Supermix (Quanta, VWR), 3.5 μl RNAse-free water, 0.15 μM of each primer and 0.1 μM of each probe. Real-time PCR was measured on CFX96 (Bio-rad) using the following settings for all genes: 3 min pre-incubation at 95° C. followed by 40 cycles of denaturation at 95° C. for 15 s, annealing and elongation at 60° C. for 1 minute.
Reference genes are HPRT and cyclophilin.
Compounds and saline solution (control) as indicated above were administered s.c. 65 min before sacrificing the animals. Results are presented as percent of control means±SEM. Statistical significance was assessed using Student's t-test (2 tailed) vs controls. * denotes p<0.05, ** p<0.01, n=5, *** p<0.001, n=5.
Correct PCR products are confirmed by agarose gel electrophoresis (2%) PCR products are purified with PCR purification kit from Qiagen (Valencia, Calif., USA). All genes are sequenced at MWG, Germany. The amounts of gene of interests are normalized with the two reference genes HPRT and cyclophilin A with the equation delta-delta CT.

[1] = system: human alpha 2A adrenergic receptor and/or the non-selective adrenergic alpha 2 receptor; experiment: In vitro binding studies, adrenergic alpha 2 receptors ([3H]RX 821002); set-up: species or system human and/or rat; conditions: concentration of 10 μM
Experimental: (The measurement was performed as described in Langin, D., Lafontan, M., Stilling, M. R. and Paris, H. (1989), [3H]RX821002: a new tool for the identification of alpha2A-adrenoceptors, Eur. J. Pharmacol. 167: 95.)
Cell membrane homogenates (48 μg protein) were incubated for 60 min at 22° C. with 1 nM [3H]RX 821002 in the absence or presence of the test compound in a buffer containing 50 mM Tris-HCl (pH 7.4), 2 mM MgCl2 and 1 mM EDTA. Nonspecific binding was determined in the presence of 100 μM (−)epinephrine. Following incubation, the samples were filtered rapidly under vacuum through glass fiber filters (GF/B, Packard) presoaked with 0.3% PEI and rinsed several times with ice-cold 50 mM Tris-HCl using a 96-sample cell harvester (Unifilter, Packard). The filters were dried then counted for radioactivity in a scintillation counter (Topcount, Packard) using a scintillation cocktail (Microscint 0, Packard).
The results are expressed as a percent inhibition of the control radioligand specific binding.
(antagonist radioligand). Membrane homogenates (rat) of cerebral cortex (160 μg protein) were incubated for 60 min at 22° C. with 0.5 nM [3H]RX 821002 in the absence or presence of the test compound in a buffer containing 50 mM Tris-HCl (pH 7.4), 2 mM MgCl2 and 1 mM EDTA. Nonspecific binding was determined in the presence of 100 μM (−)epinephrine. Following incubation, the samples were filtered rapidly under vacuum through glass fiber filters (GF/B, Packard) presoaked with 0.3% PEI and rinsed several times with ice-cold 50 mM Tris-HCl using a 96-sample cell harvester (Unifilter, Packard). The filters were dried then counted for radioactivity in a scintillation counter (Topcount, Packard) using a scintillation cocktail (Microscint 0, Packard). The results are expressed as a percent inhibition of the control radioligand specific binding. The standard reference compound was yohimbine, which was tested in each experiment at several concentrations to obtain a competition curve from which its IC50 was calculated.

SERT, NET and/or DAT = experiment: Radioligand binding assays at the monoamine transporters, general statements; set-up: species or system human; conditions: concentration of each tested compound 10 μM
From the text: A serotonin-norepinephrine-dopamine reuptake inhibitor (SNDRI), also known as a triple reuptake inhibitor (TRI), is a type of drug that acts as a combined reuptake inhibitor of the monoamine neurotransmitters serotonin, norepinephrine, and dopamine. It does this by concomitantly inhibiting the serotonin transporter (SERT), norepinephrine transporter (NET), and dopamine transporter (DAT), respectively. Inhibition of the reuptake of these neurotransmitters increases their extracellular concentrations and, therefore, results in an increase in serotonergic, adrenergic, and dopaminergic neurotransmission across the brain. However, the use of triple re-uptake inhibitors (especially the inhibition of DAT) in humans are of potential concern due to abuse liability. Cocaine is the most well-known triple-uptake inhibitor and is widely encountered as a drug of abuse. […] One assay to measure affinity of said compounds as described herein may be the percent inhibition from radioligand binding assay using cells expressing human transporters and receptors (Table 5), wherein the concentration of each tested compound in such assay is 10 μM. Alternatively other assays known to the skilled person may be used to measure the affinity of said compounds, wherein the concentration of each tested compound in such assay is 10 μM.
Each compound was tested in a single concentration at 1.0 E-5 M and in duplicate. […]

inhibition of the binding of a radioactively labeled ligand [1]	affinity to SERT, NET and/or DAT (percent inhibition) (SERT, NET and/or DAT)	Structure (SMILES)	Arc frontal cortex ± SEM (Arc mRNA)	Arc striatum ± SEM (Arc mRNA)
more than 93%		Fc1cccc(OC2CNC2)c1F [Example 1A, 3-(2,3-difluorophenoxy)azetidine hydrochloric acid salt]	236 ± 9*** % of control means	149 ± 11* % of control means
		Fc1cc(F)c(F)c(OC2CNC2)c1 [Example 2, 3-(2,3,5-trifluorophenoxy)azetidine hydrochloric acid salt]	96 ± 20 % of control means	104 ± 12 % of control means
more than 93%		Fc1cc(F)c(F)c(OC2CNC2)c1F [Example 3, 3-(2,3,5,6-tetrafluorophenoxy)-azetidine hydrochloric acid salt]	149 ± 11** % of control means	141 ± 9.0** % of control means
more than 93%		Fc1ccc(F)c(OC2CNC2)c1F [Example 20, 3-(2,3,6-trifluorophenoxy)azetidine hydrochloric acid salt]		
		Fc1cc(F)cc(OC2CNC2)c1.O=C(O)C(O)C(O)C(=O)O [Example 52B, 3-(3,5-difluorophenoxy)azetidine (+)-tartaric acid salt]	148 ± 6.9** % of control means	106 ± 7.1 % of control means
more than 93%		Fc1cc(F)cc(OC2CNC2)c1 [Example 52C, 3-(3,5-difluorophenoxy)azetidine hydrochloric acid salt]		
	higher than 75%	Clc1ccc(OC2CNC2)cc1Cl [Reference Compound, 3-(3,4-dichlorophenoxy)azetidine hydrochloric acid salt, reference compound]		
